Source: PubChem BioAssay (NCI)
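All cell lines were grown in 96-well plates and treated with compound for 48 hours. Abbreviation: GI50, concentration required for 50% inhibition of growth. TGI marks complete inhibition of growth.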

Experiments:
Experiment in all cases: NCI anticancer screen, dose series, 48 h
[1] = test system: HS 578T breast
[2] = test system: KM12 colon
[3] = test system: OVCAR-3 ovarian
[4] = test system: RPMI-8226 leukemia
[5] = test system: SF-295 CNS
[6] = test system: SK-MEL-28 melanoma
[7] = test system: SR leukemia
[8] = test system: SW-620 colon
[9] = test system: T-47D breast
[10] = test system: UACC-62 melanoma

Compound	GI50 [1] [µM]	TGI [1] [µM]	GI50 [2] [µM]	TGI [2] [µM]	GI50 [3] [µM]	TGI [3] [µM]	GI50 [4] [µM]	TGI [4] [µM]	GI50 [5] [µM]	TGI [5] [µM]	GI50 [6] [µM]	TGI [6] [µM]	GI50 [7] [µM]	TGI [7] [µM]	GI50 [8] [µM]	TGI [8] [µM]	GI50 [9] [µM]	TGI [9] [µM]	GI50 [10] [µM]	TGI [10] [µM]
O=C1NC(=NCCc2ccc(Br)cc2)S/C1=C\c1ccc2ncccc2c1	11	> 25	24.6	> 25	> 25	> 25	> 25	> 25	> 23.2	> 25	> 25	> 25	7.31	> 25	> 25	> 25	> 17.1	> 25	> 25	> 25
CC1(C)C(=O)/C=C\C(=O)C(C)(C)C(=O)/C=C\C(=O)C(C)(C)C2=CC=C(O2)C(C)(C)C(=O)/C=C\C1=O	–	50	–	19.8	–	9.41	–	3.17	–	31.1	–	10	–	4.05	–	3.59	–	18.5	–	15.7
C(=N\Nc1ccc2ccccc2n1)/c1ccccn1	2.36	> 52.9	0.458	16.2	0.351	–	0.513	15.7	0.348	12.9	1.96	> 100	0.328	–	0.644	> 43.3	0.574	38.5	0.877	5.54
CN1CCN(c2ccc(NC3=CC(=O)c4ncncc4C3=O)cc2)CC1	1.74	6.29	1.67	4.35	0.313	–	0.261	0.75	0.511	1.66	1.46	3.08	0.321	> 100	0.336	1.27	0.231	0.651	0.303	0.804
COc1ccc(-c2c(-c3ccc(C#N)c(F)c3)nc(N3CCC(N)CC3)n(C)c2=O)cc1F	13.2	44.6	20	41.5	21.7	77.4	18.4	49.1	15.4	31.9	15.3	29.8	12.2	34.6	24.2	96.2	14	46.3	16.1	32.9
Oc1[nH]c2ccccc2c1C=Nc1ccc(-n2cncn2)cc1	> 25	> 25	0.991	> 25	> 20.9	> 25	18.3	> 25	> 25	> 25	> 25	> 25	19	> 25	> 25	> 25	8.79	> 21.9	14.6	> 25
CC12O[C@H](C[C@@H](OC(=O)CCC(=O)O)[C@H]1O)n1c3ccccc3c3c4c(c5c6ccccc6n2c5c31)C(=O)NC4=O	2.43	28.4	0.285	11.5	1.32	14	5.98	24.3	1.5	7.6	1.51	19.8	0.505	10.5	1.43	13.4	0.83	> 50	0.585	7.2
C[C@]12CCC(=O)C[C@@H]1CC[C@@H]1[C@@H]2CC[C@]2(C)[C@@H](OC(=O)N(CCCl)N=O)CC[C@@H]12	2.13	16.9	1.49	6.41	3.53	15.9	2.02	6.89	0.133	> 45.4	6.43	23	–	> 37.7	1.11	19	2.91	30	0.377	11.7
C=C(C)C(=O)Nc1ccc(-c2c(-c3ccc(Oc4nccc(C)n4)c(F)c3)c3c(N)ncnc3n2C)cc1	1.09	4.1	3.87	17	4.77	18.4	2.74	17.3	2.59	13.4	4.38	17.6	2.36	9.64	8.7	25.9	2.97	35.5	–	–
Clc1ccc(-c2nc(NCc3ccco3)c3ccccc3n2)c(Cl)c1	14.2	46.4	10.2	27.3	11.6	29.7	5.64	81.9	13.6	33.5	24.5	> 100	10.1	44.7	–	–	45.6	> 100	13.9	32.7
COc1ccc2nc3ccccc3c(NCCCCN(CCCl)CCCl)c2c1	–	> 22.1	–	3.48	–	–	–	0.943	–	18.6	–	8.02	–	2.79	–	2.74	–	13.8	–	1.42
